Test results from patent US20250197864A1, “LNCRNA TRANSCRIPTS IN MELANOMAGENESIS” (The Regents of the University of California, priority 2021, published 2025).

System: gene expression in D04 melanoma cells
Assay: RNA-Seq differential expression analysis (DESeq2)
Type: cell-based, human
Settings: up-regulated list
Method: Total RNA was isolated using the RNeasy mini Kit (QIAGEN) following the manufacturer's protocol. Quality check for extracted RNA was done using 2100 Bioanalyzer (Agilent Technologies, USA) or Tapestation System (Agilent Technologies, USA). […] For samples used for identification of MAPK-responsive lncRNAs, paired-end, 101-bp sequencing was performed by Centrillion Genomic Services (Centrillion Biosciences, USA) on an Illumina HiSeq 2000. For DE gene analysis of ASO-transfected D04 samples, paired-end, 2×150-bp sequencing was performed by Genewiz (USA) on a Illumina HiSeq.
Sequence reads were aligned to the human genome (hg19) using TopHat (Version 2.0.11).
Differential expression (DE) analysis was done using DESeq2. Differentially expressed genes were defined by more than 1.5-fold changes (log 2 >0.58 or <−0.58) in expression with FDR<0.05. GO term analysis was done using DAVID Functional Annotation Clustering analysis.
To examine the biomolecular changes upon TRASH-inhibition in melanoma, D04 cells were treated with TRASH-ASOs (SEQ ID NO:15) and Control-ASOs and RNA was extracted and used for RNA-Seq. […] These GO terms consisted of genes encoding growth factors, tyrosine kinases, G protein coupled receptor subunits, and collagen subunits. Scatter plot diagram showing differential gene expression after TRASH-ASO treatment compared to Control-ASO treatment. (cut-off for significance was adjusted p-value <0.05). Data was obtained from RNA-Seq of D04 melanoma cells, treatment period was three days. (FIG. 5c)

GACTGGAGATAATTAA (gapmer, pattern not given here) [SEQ ID NO: 15, GapmeR ASO targeting AC004540.4 (TRASH), exon region of both isoforms; used for in vitro experiments]
log2FoldChange BBC3 (ENSG00000105327): 0.619 | log2FoldChange CD33 (ENSG00000105383): 0.929 | log2FoldChange PLA2G4C (ENSG00000105499): 0.608 | log2FoldChange HBP1 (ENSG00000105856): 0.6116 | log2FoldChange ATP6V0A4 (ENSG00000105929): 0.8207 | log2FoldChange CPED1 (ENSG00000106034): 0.7035 | log2FoldChange SERPINE1 (ENSG00000106366): 0.6383 | log2FoldChange ABI3 (ENSG00000108798): 0.9913 | log2FoldChange SLC16A6 (ENSG00000108932): 0.91 | log2FoldChange LPXN (ENSG00000110031): 0.7633 | log2FoldChange ATG2A (ENSG00000110046): 0.5858 | log2FoldChange CHKA (ENSG00000110721): 0.7402 | log2FoldChange RASAL1 (ENSG00000111344): 0.896 | log2FoldChange RBM24 (ENSG00000112183): 0.8237 | log2FoldChange TREML2 (ENSG00000112195): 1.205 | log2FoldChange WWC1 (ENSG00000113645): 0.6261 | log2FoldChange STC2 (ENSG00000113739): 0.7339 | log2FoldChange TNNC1 (ENSG00000114854): 1.043 | log2FoldChange IL1A (ENSG00000115008): 0.7632 | log2FoldChange ACTL8 (ENSG00000117148): 1.133 | log2FoldChange TSPAN1 (ENSG00000117472): 0.7518 | log2FoldChange IRF6 (ENSG00000117595): 0.7078 | log2FoldChange DIEXF (ENSG00000117597): 0.6611 | log2FoldChange MUC5B (ENSG00000117983): 0.599 | log2FoldChange NR4A3 (ENSG00000119508): 1.046 | log2FoldChange GPR75 (ENSG00000119737): 0.8604 | log2FoldChange AVPI1 (ENSG00000119986): 0.7469 | log2FoldChange DUSP1 (ENSG00000120129): 1.094 | log2FoldChange FABP3 (ENSG00000121769): 0.9724 | log2FoldChange CCRL2 (ENSG00000121797): 1.162 | log2FoldChange PAEP (ENSG00000122133): 0.8405 | log2FoldChange PLAU (ENSG00000122861): 1.118 | log2FoldChange SLC25A16 (ENSG00000122912): 0.8143 | log2FoldChange KCNK15 (ENSG00000124249): 1.203 | log2FoldChange PAIP2B (ENSG00000124374): 1.015 | log2FoldChange MT1G (ENSG00000125144): 1.136 | log2FoldChange MT2A (ENSG00000125148): 0.8492 | log2FoldChange BMP4 (ENSG00000125378): 0.657 | log2FoldChange IL1B (ENSG00000125538): 1.059 | log2FoldChange PSD4 (ENSG00000125637): 0.7899 | log2FoldChange ARMCX1 (ENSG00000126947): 0.5964 | log2FoldChange BEST3 (ENSG00000127325): 1.14 | log2FoldChange KLF2 (ENSG00000127528): 0.7602 | log2FoldChange AKAP9 (ENSG00000127914): 0.609 | log2FoldChange KRT17 (ENSG00000128422): 1.116 | log2FoldChange VGF (ENSG00000128564): 0.9691 | log2FoldChange CSRP3 (ENSG00000129170): 1.122 | log2FoldChange AJUBA (ENSG00000129474): 0.6241 | log2FoldChange CDH15 (ENSG00000129910): 0.8921 | log2FoldChange SYT5 (ENSG00000129990): 1.139 | log2FoldChange UNC13A (ENSG00000130477): 1.071 | log2FoldChange ULBP3 (ENSG00000131019): 0.6552 | log2FoldChange ZBED3 (ENSG00000132846): 0.778 | log2FoldChange BEX2 (ENSG00000133134): 0.7157 | log2FoldChange BEX1 (ENSG00000133169): 0.6316 | log2FoldChange BTG1 (ENSG00000133639): 0.69 | log2FoldChange DYDC2 (ENSG00000133665): 0.987 | log2FoldChange TRPM1 (ENSG00000134160): 1.155 | log2FoldChange PTPN22 (ENSG00000134242): 1.051 | log2FoldChange FST (ENSG00000134363): 0.8947 | log2FoldChange SLC37A2 (ENSG00000134955): 0.7294 | log2FoldChange NT5E (ENSG00000135318): 0.6889 | log2FoldChange RDH5 (ENSG00000135437): 0.8676 | log2FoldChange PKIB (ENSG00000135549): 0.7917 | log2FoldChange DYSF (ENSG00000135636): 0.9396 | log2FoldChange LCP1 (ENSG00000136167): 1.021 | log2FoldChange IL6 (ENSG00000136244): 0.8209 | log2FoldChange MYC (ENSG00000136997): 0.6121 | log2FoldChange RNF144B (ENSG00000137393): 1.04 | log2FoldChange ARHGAP29 (ENSG00000137962): 0.6178 | log2FoldChange AOX1 (ENSG00000138356): 1.099 | log2FoldChange FGF5 (ENSG00000138675): 0.9785 | log2FoldChange ANXA3 (ENSG00000138772): 0.8166 | log2FoldChange SLC46A3 (ENSG00000139508): 0.6816 | log2FoldChange CYP11A1 (ENSG00000140459): 0.9698 | log2FoldChange RHCG (ENSG00000140519): 1.166 | log2FoldChange ITGAX (ENSG00000140678): 0.7501 | log2FoldChange MAP1LC3B (ENSG00000140941): 0.7968 | log2FoldChange NPC1 (ENSG00000141458): 0.6586 | log2FoldChange SLC14A1 (ENSG00000141469): 1.217 | log2FoldChange NECTIN4 (ENSG00000143217): 1.206 | log2FoldChange ABL2 (ENSG00000143322): 0.8447 | log2FoldChange RORC (ENSG00000143365): 0.8825 | log2FoldChange TUFT1 (ENSG00000143367): 0.8984 | log2FoldChange DYRK3 (ENSG00000143479): 0.5876 | log2FoldChange DUSP10 (ENSG00000143507): 0.6264 | log2FoldChange SLC20A1 (ENSG00000144136): 0.585
